Data taken from ChEMBL document CHEMBL3638586, “Inhibition of memapsin 1 cleavage in the treatment of diabetes” (2015).

Key:
Beta-secretase 2 = molecular target: T1, Beta-secretase 2 (Homo sapiens, UniProt Q9Y5Z0); assay: (§1) Inhibition Assay: Previously, one of the following compounds discussed below have been studied in memapsin 2 inhibition (Ghosh et al., 2008), which the others are previously unpublished. Given the closely related substrate specificity for memapsin 1 and memapsin 2, the inventors chose to screen these previously identified memapsin 2 inhibitors for lead compounds as memapsin 1 inhibitors. Recombinant memapsin 1 ectodomain was prepared as described by Turner et al. (2002) and assayed using a commercially purchased fluorescent substrate.
T1 sequence (Q9Y5Z0 whole entry): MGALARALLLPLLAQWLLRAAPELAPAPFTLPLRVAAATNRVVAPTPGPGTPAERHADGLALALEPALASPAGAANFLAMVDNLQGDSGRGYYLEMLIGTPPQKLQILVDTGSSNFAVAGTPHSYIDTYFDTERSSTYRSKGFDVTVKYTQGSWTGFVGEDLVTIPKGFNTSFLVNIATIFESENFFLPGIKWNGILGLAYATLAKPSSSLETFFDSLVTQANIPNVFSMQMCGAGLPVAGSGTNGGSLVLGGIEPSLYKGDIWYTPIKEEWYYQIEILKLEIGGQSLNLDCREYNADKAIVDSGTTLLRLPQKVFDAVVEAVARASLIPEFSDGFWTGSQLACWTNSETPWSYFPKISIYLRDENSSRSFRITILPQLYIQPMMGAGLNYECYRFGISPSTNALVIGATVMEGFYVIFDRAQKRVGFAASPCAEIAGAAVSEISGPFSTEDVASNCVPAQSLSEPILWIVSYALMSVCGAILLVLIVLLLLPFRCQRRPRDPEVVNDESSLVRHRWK

Beta-secretase 1 = Beta-secretase 1 (Homo sapiens, UniProt P56817); assay: as §1
Sequence of Beta-secretase 1 (P56817 whole entry): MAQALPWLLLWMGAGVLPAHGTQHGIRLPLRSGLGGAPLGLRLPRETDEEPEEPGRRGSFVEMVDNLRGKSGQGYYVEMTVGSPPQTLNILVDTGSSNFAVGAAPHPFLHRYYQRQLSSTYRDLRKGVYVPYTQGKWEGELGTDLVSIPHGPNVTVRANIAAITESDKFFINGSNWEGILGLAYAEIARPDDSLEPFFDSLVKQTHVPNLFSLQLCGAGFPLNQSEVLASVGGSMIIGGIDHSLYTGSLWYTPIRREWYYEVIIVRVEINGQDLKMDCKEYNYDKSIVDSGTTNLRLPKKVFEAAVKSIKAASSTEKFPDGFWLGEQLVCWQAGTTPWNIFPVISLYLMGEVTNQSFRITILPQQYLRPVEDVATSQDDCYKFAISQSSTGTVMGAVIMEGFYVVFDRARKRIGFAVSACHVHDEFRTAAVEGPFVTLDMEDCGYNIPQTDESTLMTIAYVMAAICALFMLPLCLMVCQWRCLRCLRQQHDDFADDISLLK

Row | Ki (Beta-secretase 2) [nM] | Ki (Beta-secretase 1) [nM] | IC50 (Beta-secretase 2) [nM] | Compound
1 | 11 |  |  | CCCC(O)N(NC[C@H](Cc1ccccc1)NC(=O)c1cc2c3c(c1)c(CC)cn3CC1(CC1)S(=O)(=O)N2C)C(=O)NCC(C)C (stereo partly drawn)
2 | 76.6 | 267 |  | CCCC(O)C(NCC(O)C(Cc1ccccc1)NC(=O)c1cccc(C(=O)N2CCCC2OC)c1)C(=O)NCC(C)C (stereo not drawn)
3 | 30 |  |  | CCCC(O)N(NC[C@H](Cc1ccccc1)NC(=O)c1cc2c3c(c1)c(CC)cn3CC1(CC1)S(=O)(=O)N2C)C(=O)NC(C)C (stereo partly drawn)
4 | 89 |  |  | CC(C)CNC(=O)C(NCC(O)C(Cc1ccccc1)NC(=O)c1cc(C(=O)NC(C)c2ccc(I)cc2)cc(N(C)S(C)(=O)=O)c1)C(C)O (stereo not drawn)
5 | 0.0014 | 563 |  | CCCC(O)C(NCC(O)C(Cc1ccccc1)NC(=O)c1cc(C)cc(C(=O)N(C)C(C)c2ccccc2)c1)C(=O)NCC(C)C (stereo not drawn)
6 | 63.1 | 5810 |  | CC(C)CNC(=O)C(NCC(O)C(Cc1ccccc1)NC(=O)c1cccc(C(=O)N(C)C(C)c2ccccc2)c1)C(C)O (stereo not drawn)
7 | 19.7 | 6.56 |  | CCCC(O)C(NCC(O)C(Cc1ccccc1)NC(=O)c1cc(C)cc(C(=O)N2CCCC2OC)c1)C(=O)NCC(C)C (stereo not drawn)
8 |  |  | 500 | CC(CN1Cc2cc(Oc3ccccc3)ccc2N=C1N)C(=O)NCCC(C)(C)C (stereo not drawn)
9 | 48 |  |  | NC1=Nc2ccc(Oc3ccccc3)cc2CN1C(CCC(=O)N(CC1CCC(=O)N1)C1CCCCC1)C1CCCCC1 (stereo not drawn)
10 | 350 |  |  | COCC(NC(=O)OCC(C1CCCCC1)N1Cc2cc(Oc3ccccc3)ccc2N=C1N)C(=O)N(C)C (stereo not drawn)
11 | 0.02 | 5250 |  | CCCC(O)C(NCC(O)C(Cc1ccccc1)NC(=O)c1cccc(C(=O)N(C)C(C)c2ccccc2)c1)C(=O)NCC(C)C (stereo not drawn)
12 |  |  | 700 | COc1ccc(C(C(C)O)C(Cc2ccccc2)NC(=O)c2cc(C(=O)NC(C)c3ccccc3)cc(N(C)S(C)(=O)=O)c2)cc1 (stereo not drawn)
13 | 521 |  |  | CCc1cn2c3c(cc(C(=O)N[C@@H](Cc4ccccc4)C(O)CNCc4cccc(C(F)(F)F)c4)cc13)N(C)S(=O)(=O)C1(CC1)C2 (stereo partly drawn)
14 | 70 |  |  | Cc1oncc1CN(C(=O)CCC(C1CCCCC1)N1Cc2cc(Oc3ccccc3)ccc2N=C1N)C1CCCCC1 (stereo not drawn)
15 | 199 |  |  | CCc1cn2c3c(cc(C(=O)N[C@@H](Cc4ccccc4)[C@H](O)CNC(COC)c4cccc(C(F)(F)F)c4)cc13)N(C)S(=O)(=O)C1(CC1)C2 (stereo partly drawn)
16 | 6060 |  |  | CC(C)CN1CCNC(C(O)C(Cc2ccccc2)NC(=O)c2cc(C(=O)NC(C)c3ccccc3)cc(N(C)S(C)(=O)=O)c2)C1 (stereo not drawn)
17 |  |  | 350 | COc1cccc(C(NCC(O)C(Cc2ccccc2)NC(=O)c2cc(C(=O)NC(C)c3ccccc3)cc(N(C)S(C)(=O)=O)c2)C(C)O)c1 (stereo not drawn)
18 | 1 | 1660 |  | Cc1cc(C(=O)NC(Cc2ccccc2)C(O)CNC(C(=O)NCC(C)C)C(C)O)cc(C(=O)N(C)C(C)c2ccccc2)c1 (stereo not drawn)
19 | 37 |  |  | CC(C)CNC(=O)C(NCC(O)C(Cc1ccccc1)NC(=O)c1cc(C(=O)NC(C)c2ccccc2)cc(N(C)S(C)(=O)=O)c1)C(C)O (stereo not drawn)
20 | 46 |  |  | CSC[C@H](NC(=O)C1NOC2OCCC21)C(=O)NC(CC(C)C)[C@@H](O)CC(C)C(=O)NC(C(=O)N(C)C)C(C)C (stereo partly drawn)
21 | 53 |  |  | CC(C)CC(NC(=O)[C@H](CS(C)(=O)=O)NC(=O)C1NOC2OCCC21)[C@@H](O)CC(C)C(=O)NC(C(=O)N(C)C)C(C)C (stereo partly drawn)
22 | 53 |  |  | Cc1ncsc1CN(C(=O)CCC(C1CCCCC1)N1Cc2cc(Oc3ccccc3)ccc2N=C1N)C1CCCCC1 (stereo not drawn)
